This experiment concerns P388. Put plainly: Cytotoxicity against mouse P388 cells after 48 hrs by MTT assay. Format: functional, cell-based. Conditions: P388, 48 h. (In general: Tetrazolium assays rely on reduction of a dye to a coloured formazan, in cell work by metabolically active cells.)

Each structure is given as a SMILES string. Values after ≈ are worked out from the molar mass of the structure shown. Residues, ends and D or L forms follow the SMILES beside them.

What is called IC50 is the concentration needed to halve the response being measured.

Compound `O=C1CNC(=O)[C@H](Cc2ccc(O)cc2)NC(=O)CNC(=O)[C@@H]2CCCN2C(=O)[C@H](Cc2ccccc2)NC(=O)[C@@H]2CCCN2C(=O)CN1` [YUNNANIN A] (HELM PEPTIDE1{F.P.G.Y.G.G.P}$PEPTIDE1,PEPTIDE1,1:R1-7:R2$$$V2.0) came in with an IC50 of 2.1 µg/mL (≈ 3.11 µM).

In the case of `CC[C@H](C)[C@@H]1NC(=O)CNC(=O)[C@@H]2CCCN2C(=O)[C@H](CO)NC(=O)[C@H](Cc2ccc(O)cc2)NC(=O)[C@H](Cc2ccccc2)NC(=O)CNC1=O` [YUNNANIN C] (HELM PEPTIDE1{F.Y.S.P.G.I.G}$PEPTIDE1,PEPTIDE1,1:R1-7:R2$$$V2.0), the 50% inhibitory concentration (IC50) was 2.2 µg/mL (≈ 3.05 µM).

The values are drawn from ChEMBL document CHEMBL1158211, “Cyclic peptides from higher plants. 24.1 yunnanin C, a novel cyclic heptapeptide from Stellaria yunnanensis” (J Nat Prod, 1996).
